Source: paper PMC5218480 (PLoS ONE, 2017)

Tested on: MV-4-11 cells
Experiment: Gene expression microarray analysis (Affymetrix PrimeView) and GSEA
Assay type: cell-based, human
Parameters: RFU PODN (11730768_x_at) / Fold change /veh PODN (11730768_x_at) / RFU LINC00158 (11744669_a_at) / Fold change /veh LINC00158 (11744669_a_at) / RFU DUSP10 (11751237_a_at) / Fold change /veh DUSP10 (11751237_a_at) / RFU ID3 (11757404_x_at) / Fold change /veh ID3 (11757404_x_at) / RFU PLEKHG5 (11737974_s_at) / Fold change /veh PLEKHG5 (11737974_s_at) / RFU LRRC4B (11730491_at) / Fold change /veh LRRC4B (11730491_at) / RFU GIMAP4 (11747438_a_at) / Fold change /veh GIMAP4 (11747438_a_at) / RFU KRT8 (11758183_x_at) / Fold change /veh KRT8 (11758183_x_at) / RFU CNN1 (11734310_a_at) / Fold change /veh CNN1 (11734310_a_at) / RFU VPS37D (11726825_at) / Fold change /veh VPS37D (11726825_at) / RFU C10orf10 (11716522_x_at) / Fold change /veh C10orf10 (11716522_x_at) / RFU KIR2DL2 /// KIR2DL4 /// KIR2DL5A /// KIR2DL5B /// KIR2DS1 /// KIR2DS2 /// KIR2DS3 /// KIR2DS4 /// KIR3DL3 /// KIR3DL3 /// KIR3DS1 (11738374_at) / Fold change /veh KIR2DL2 /// KIR2DL4 /// KIR2DL5A /// KIR2DL5B /// KIR2DS1 /// KIR2DS2 /// KIR2DS3 /// KIR2DS4 /// KIR3DL3 /// KIR3DL3 /// KIR3DS1 (11738374_at) / RFU C1QL1 (11718748_at) / Fold change /veh C1QL1 (11718748_at) / RFU TMPRSS4 (11747572_a_at) / Fold change /veh TMPRSS4 (11747572_a_at) / RFU HAMP (11756126_x_at) / Fold change /veh HAMP (11756126_x_at) / RFU RNFT2 (11725882_a_at) / Fold change /veh RNFT2 (11725882_a_at) / RFU NR4A2 (11747474_a_at) / Fold change /veh NR4A2 (11747474_a_at) / RFU ABCC12 (11746883_a_at) / Fold change /veh ABCC12 (11746883_a_at) / RFU TMEM136 (11760407_x_at) / Fold change /veh TMEM136 (11760407_x_at) / RFU CLDN22 /// WWC2 (11732394_at) / Fold change /veh CLDN22 /// WWC2 (11732394_at) / RFU HLA-DPB1 (11760878_x_at) / Fold change /veh HLA-DPB1 (11760878_x_at) / RFU SPINT1 (11716480_a_at) / Fold change /veh SPINT1 (11716480_a_at) / RFU GAP43 (11754022_s_at) / Fold change /veh GAP43 (11754022_s_at) / RFU A4GNT (11735810_at) / Fold change /veh A4GNT (11735810_at) / RFU PRB3 (11715151_x_at) / Fold change /veh PRB3 (11715151_x_at) / RFU TUBB4B (11761932_at) / Fold change /veh TUBB4B (11761932_at) / RFU CAPN14 (11732068_a_at) / Fold change /veh CAPN14 (11732068_a_at) / RFU TMCC2 (11721928_a_at) / Fold change /veh TMCC2 (11721928_a_at) / RFU IRGQ (11745062_a_at) / Fold change /veh IRGQ (11745062_a_at) / RFU FAM174B (11720279_a_at) / Fold change /veh FAM174B (11720279_a_at) / RFU TMPRSS4 (11748680_a_at) / Fold change /veh TMPRSS4 (11748680_a_at) / RFU FAM212B (11763350_a_at) / Fold change /veh FAM212B (11763350_a_at) / RFU PLEKHG5 (11743358_a_at) / Fold change /veh PLEKHG5 (11743358_a_at) / RFU ZSCAN30 (11745921_a_at) / Fold change /veh ZSCAN30 (11745921_a_at) / RFU CMKLR1 (11741424_a_at) / Fold change /veh CMKLR1 (11741424_a_at) / RFU LOC101060620 /// MAPK8IP1 (11723275_at) / Fold change /veh LOC101060620 /// MAPK8IP1 (11723275_at) / RFU SPTSSB (11747773_x_at) / Fold change /veh SPTSSB (11747773_x_at) / RFU PRSS12 (11739890_at) / Fold change /veh PRSS12 (11739890_at) / RFU BIN1 (11741810_x_at) / Fold change /veh BIN1 (11741810_x_at) / RFU WNT11 (11732464_a_at) / Fold change /veh WNT11 (11732464_a_at) / RFU C10orf10 (11716521_a_at) / Fold change /veh C10orf10 (11716521_a_at) / RFU C5orf56 (11738089_at) / Fold change /veh C5orf56 (11738089_at) / RFU CYB561 (11721691_x_at) / Fold change /veh CYB561 (11721691_x_at) / RFU ANKRD19P (11752326_a_at) / Fold change /veh ANKRD19P (11752326_a_at) / RFU OR2T12 /// OR2T33 /// OR2T8 (11738714_s_at) / Fold change /veh OR2T12 /// OR2T33 /// OR2T8 (11738714_s_at) / RFU VCAN (11748164_a_at) / Fold change /veh VCAN (11748164_a_at) / RFU JSRP1 (11732532_at) / Fold change /veh JSRP1 (11732532_at) / RFU KRTAP10-11 (11738290_x_at) / Fold change /veh KRTAP10-11 (11738290_x_at) / RFU MYO3A (11730013_a_at) / Fold change /veh MYO3A (11730013_a_at) / RFU EBF3 (11725865_a_at) / Fold change /veh EBF3 (11725865_a_at) / RFU CAMK2N1 (11719241_x_at) / Fold change /veh CAMK2N1 (11719241_x_at) / RFU C5orf56 (11738088_a_at) / Fold change /veh C5orf56 (11738088_a_at) / RFU OLFML3 (11715873_a_at) / Fold change /veh OLFML3 (11715873_a_at) / RFU LOC100653217 /// NTM (11731650_a_at) / Fold change /veh LOC100653217 /// NTM (11731650_a_at) / RFU MAPK11 (11762145_a_at) / Fold change /veh MAPK11 (11762145_a_at) / RFU FIZ1 (11724087_x_at) / Fold change /veh FIZ1 (11724087_x_at) / RFU OASL (11726364_x_at) / Fold change /veh OASL (11726364_x_at) / RFU SOX15 (11748057_x_at) / Fold change /veh SOX15 (11748057_x_at) / RFU CD79A (11719716_a_at) / Fold change /veh CD79A (11719716_a_at) / RFU HIST1H1D (11736915_at) / Fold change /veh HIST1H1D (11736915_at) / RFU CASKIN2 (11723855_a_at) / Fold change /veh CASKIN2 (11723855_a_at) / RFU LOC730098 (11760151_x_at) / Fold change /veh LOC730098 (11760151_x_at) / RFU OR4N2 (11742367_at) / Fold change /veh OR4N2 (11742367_at) / RFU PRRT2 (11749266_a_at) / Fold change /veh PRRT2 (11749266_a_at) / RFU SNX32 (11753110_a_at) / Fold change /veh SNX32 (11753110_a_at) / RFU CDHR5 (11726645_a_at) / Fold change /veh CDHR5 (11726645_a_at) / RFU RCAN1 (11760418_a_at) / Fold change /veh RCAN1 (11760418_a_at) / RFU FAM167A (11723789_a_at) / Fold change /veh FAM167A (11723789_a_at) / RFU FAM26E (11764081_at) / Fold change /veh FAM26E (11764081_at) / RFU ISYNA1 (11749810_s_at) / Fold change /veh ISYNA1 (11749810_s_at) / RFU ACY1 (11761880_at) / Fold change /veh ACY1 (11761880_at) / RFU 11764098_at / Fold change /veh 11764098_at / RFU SAMD14 (11745864_x_at) / Fold change /veh SAMD14 (11745864_x_at) / RFU NPB (11741838_a_at) / Fold change /veh NPB (11741838_a_at) / RFU TMPRSS6 (11731388_a_at) / Fold change /veh TMPRSS6 (11731388_a_at) / RFU KRTAP10-2 (11738614_at) / Fold change /veh KRTAP10-2 (11738614_at) / RFU ARHGAP8 /// PRR5-ARHGAP8 (11727945_x_at) / Fold change /veh ARHGAP8 /// PRR5-ARHGAP8 (11727945_x_at) / RFU KRTAP5-7 /// NADSYN1 (11734609_at) / Fold change /veh KRTAP5-7 /// NADSYN1 (11734609_at) / RFU RASL12 (11751679_a_at) / Fold change /veh RASL12 (11751679_a_at) / RFU CDKN2B (11736163_a_at) / Fold change /veh CDKN2B (11736163_a_at) / RFU PRF1 (11729649_at) / Fold change /veh PRF1 (11729649_at) / RFU, ZNF638 /// ZNF638-IT1 / Fold change vs veh, ZNF638 /// ZNF638-IT1 / RFU, PANK3 / Fold change vs veh, PANK3 / RFU, SH3YL1 / Fold change vs veh, SH3YL1 / RFU, ZEB2 / Fold change vs veh, ZEB2 / RFU, NRIP1 / Fold change vs veh, NRIP1 / RFU, PTTG1IP / Fold change vs veh, PTTG1IP / RFU, CAPN2 / Fold change vs veh, CAPN2 / RFU, MED14 / Fold change vs veh, MED14 / RFU, SNORA58 / Fold change vs veh, SNORA58 / RFU, C1orf63 / Fold change vs veh, C1orf63 / RFU, LRRFIP1 / Fold change vs veh, LRRFIP1 / RFU, NDUFAF7 / Fold change vs veh, NDUFAF7 / RFU, SLC12A2 / Fold change vs veh, SLC12A2 / RFU, IBTK / Fold change vs veh, IBTK / RFU, ESF1 / Fold change vs veh, ESF1 / Fold change vs veh, TMEM50B / RFU, TAOK1 / Fold change vs veh, TAOK1 / RFU, ACBD3 / Fold change vs veh, ACBD3 / RFU, TMA16 / Fold change vs veh, TMA16 / RFU, RWDD3 / Fold change vs veh, RWDD3 / RFU, BCAT1 / Fold change vs veh, BCAT1 / RFU, EDEM3 / Fold change vs veh, EDEM3 / RFU, TMEM33 / Fold change vs veh, TMEM33 / RFU, WDR75 / Fold change vs veh, WDR75 / RFU, AHCTF1 / Fold change vs veh, AHCTF1 / RFU, TFRC / Fold change vs veh, TFRC / RFU, ZDHHC17 / Fold change vs veh, ZDHHC17 / RFU, NOM1 / Fold change vs veh, NOM1 / RFU, ARL8B / Fold change vs veh, ARL8B / RFU, ZBTB11 / Fold change vs veh, ZBTB11 / RFU, TAMM41 / Fold change vs veh, TAMM41 / RFU, KIAA1704 /// LOC100996395 / Fold change vs veh, KIAA1704 /// LOC100996395 / RFU, ING1 / Fold change vs veh, ING1 / RFU, TRMT61B / Fold change vs veh, TRMT61B / RFU, FUBP3 / Fold change vs veh, FUBP3 / RFU, TP53 / Fold change vs veh, TP53 / RFU, TNKS2 / Fold change vs veh, TNKS2 / RFU, ZFP14 / Fold change vs veh, ZFP14 / RFU, ACTR2 / Fold change vs veh, ACTR2 / RFU, PPP3R1 / Fold change vs veh, PPP3R1 / RFU, PIK3R1 / Fold change vs veh, PIK3R1 / RFU, HNRNPA1 / Fold change vs veh, HNRNPA1 / RFU, RNF170 / Fold change vs veh, RNF170 / RFU, ZNF28 / Fold change vs veh, ZNF28 / RFU, RNGTT / Fold change vs veh, RNGTT / RFU, OGT / Fold change vs veh, OGT / RFU, BRD1 / Fold change vs veh, BRD1 / RFU, MARS / Fold change vs veh, MARS / RFU, ZNF655 / Fold change vs veh, ZNF655 / RFU, FAHD1 / Fold change vs veh, FAHD1 / RFU, BDP1 / Fold change vs veh, BDP1 / RFU, LRRCC1 / Fold change vs veh, LRRCC1 / RFU, ARID1A / Fold change vs veh, ARID1A / RFU, ZNF146 / Fold change vs veh, ZNF146 / RFU, ZNF330 / Fold change vs veh, ZNF330 / RFU, GPN3 / Fold change vs veh, GPN3 / RFU, C9orf123 / Fold change vs veh, C9orf123 / RFU, N4BP2L2 / Fold change vs veh, N4BP2L2 / RFU, ARFIP1 / Fold change vs veh, ARFIP1 / RFU, FAM179B / Fold change vs veh, FAM179B / RFU, BCL10 / Fold change vs veh, BCL10 / RFU, UHRF1BP1L / Fold change vs veh, UHRF1BP1L / RFU, BET1 / Fold change vs veh, BET1 / RFU, CNOT2 / Fold change vs veh, CNOT2 / RFU, ZNF268 / Fold change vs veh, ZNF268 / Fold change vs veh, ZNF507 / RFU, DGCR2 / Fold change vs veh, DGCR2 / RFU, WDSUB1 / Fold change vs veh, WDSUB1 / Fold change vs veh, HSP90B1 /// MIR3652 / RFU, ADSS / Fold change vs veh, ADSS / RFU, GK / Fold change vs veh, GK / RFU, ZNF148 / Fold change vs veh, ZNF148 / RFU, TAF9 / Fold change vs veh, TAF9 / RFU, SLC1A5 / Fold change vs veh, SLC1A5 / RFU, SLMO2 / Fold change vs veh, SLMO2 / RFU, ABCC4 / Fold change vs veh, ABCC4 / RFU, LOC101060439 /// RAP1B / Fold change vs veh, LOC101060439 /// RAP1B / RFU, RFX7 / Fold change vs veh, RFX7 / RFU, GTPBP10 / Fold change vs veh, GTPBP10 / RFU, CNEP1R1 / Fold change vs veh, CNEP1R1 / RFU, BIVM-ERCC5 /// ERCC5 / Fold change vs veh, BIVM-ERCC5 /// ERCC5 / RFU, ILF3 / Fold change vs veh, ILF3 / RFU 11762660_at / Fold change /veh 11762660_at / RFU VCAN (11757783_s_at) / Fold change /veh VCAN (11757783_s_at) / RFU DDX43 (11728927_at) / Fold change /veh DDX43 (11728927_at) / RFU KRT8 (11758188_x_at) / Fold change /veh KRT8 (11758188_x_at) / RFU NKD1 (11759106_at) / Fold change /veh NKD1 (11759106_at) / RFU SRD5A1 (11742802_a_at) / Fold change /veh SRD5A1 (11742802_a_at) / RFU TPSAB1 /// TPSB2 (11721975_s_at) / Fold change /veh TPSAB1 /// TPSB2 (11721975_s_at) / RFU GSTM3 (11746129_a_at) / Fold change /veh GSTM3 (11746129_a_at) / RFU IL23R (11737362_x_at) / Fold change /veh IL23R (11737362_x_at) / RFU TMEM51 (11727254_a_at) / Fold change /veh TMEM51 (11727254_a_at) / RFU PIWIL2 (11732686_x_at) / Fold change /veh PIWIL2 (11732686_x_at) / RFU ORM1 (11744905_x_at) / Fold change /veh ORM1 (11744905_x_at) / RFU CCDC152 (11743942_at) / Fold change /veh CCDC152 (11743942_at) / RFU ECM1 (11717891_a_at) / Fold change /veh ECM1 (11717891_a_at) / RFU IL23R (11748794_a_at) / Fold change /veh IL23R (11748794_a_at) / RFU TNFAIP8L3 (11732012_x_at) / Fold change /veh TNFAIP8L3 (11732012_x_at) / RFU MBOAT4 (11741988_at) / Fold change /veh MBOAT4 (11741988_at) / RFU 11764193_at / Fold change /veh 11764193_at / RFU TMEM53 (11763286_at) / Fold change /veh TMEM53 (11763286_at) / RFU MAGEB2 (11727129_at) / Fold change /veh MAGEB2 (11727129_at) / RFU TMEM200A (11744735_a_at) / Fold change /veh TMEM200A (11744735_a_at) / RFU CCDC152 (11751479_a_at) / Fold change /veh CCDC152 (11751479_a_at) / RFU FAM211A (11726209_a_at) / Fold change /veh FAM211A (11726209_a_at) / RFU RGS16 (11746705_a_at) / Fold change /veh RGS16 (11746705_a_at) / RFU VCAN (11755009_s_at) / Fold change /veh VCAN (11755009_s_at) / RFU RHOB (11743442_s_at) / Fold change /veh RHOB (11743442_s_at) / RFU RGS16 (11720943_a_at) / Fold change /veh RGS16 (11720943_a_at) / RFU RGS16 (11720944_at) / Fold change /veh RGS16 (11720944_at) / RFU, VPS4B / Fold change vs veh, VPS4B / RFU, CREB1 / Fold change vs veh, CREB1 / RFU, DNAJC13 / Fold change vs veh, DNAJC13 / RFU, GNAQ / Fold change vs veh, GNAQ / RFU, CDK5R1 / Fold change vs veh, CDK5R1 / RFU, ZRANB3 / Fold change vs veh, ZRANB3 / RFU, CUL4A / Fold change vs veh, CUL4A / RFU, CCNY / Fold change vs veh, CCNY / RFU, UFL1 / Fold change vs veh, UFL1 / RFU, COG3 / Fold change vs veh, COG3 / RFU, DIAPH2 / Fold change vs veh, DIAPH2 / RFU, SKA2 / Fold change vs veh, SKA2 / RFU, AFF3 / Fold change vs veh, AFF3 / RFU, LMF1 / Fold change vs veh, LMF1 / RFU, IPO11 / Fold change vs veh, IPO11 / RFU, DFFB / Fold change vs veh, DFFB / RFU, FOXP1 / Fold change vs veh, FOXP1 / RFU, CARD8 / Fold change vs veh, CARD8 / RFU, STRN3 / Fold change vs veh, STRN3 / RFU, ADK / Fold change vs veh, ADK / RFU, RASSF2 / Fold change vs veh, RASSF2 / RFU, WIPF1 / Fold change vs veh, WIPF1 / RFU, LARP1B / Fold change vs veh, LARP1B / RFU, RASA1 / Fold change vs veh, RASA1 / RFU, RB1 / Fold change vs veh, RB1 / RFU, PPFIA1 / Fold change vs veh, PPFIA1 / RFU, MAT2A / Fold change vs veh, MAT2A / RFU, CCT5 / Fold change vs veh, CCT5 / RFU, WDR92 / Fold change vs veh, WDR92 / RFU, CUX1 / Fold change vs veh, CUX1 / RFU, TTC7A / Fold change vs veh, TTC7A / RFU, TMEM135 / Fold change vs veh, TMEM135 / RFU, DEPTOR / Fold change vs veh, DEPTOR / RFU, CPM / Fold change vs veh, CPM / RFU, DNAJB6 / Fold change vs veh, DNAJB6 / RFU, CACNA2D3 / Fold change vs veh, CACNA2D3 / RFU, DTX4 / Fold change vs veh, DTX4 / RFU, TFCP2 / Fold change vs veh, TFCP2 / RFU, GMCL1 /// GMCL1P1 / Fold change vs veh, GMCL1 /// GMCL1P1 / RFU, AEBP2 / Fold change vs veh, AEBP2 / RFU, SNHG1 /// SNORD22 /// SNORD25 /// SNORD26 /// SNORD27 /// SNORD28 /// SNORD29 /// SNORD31 / Fold change vs veh, SNHG1 /// SNORD22 /// SNORD25 /// SNORD26 /// SNORD27 /// SNORD28 /// SNORD29 /// SNORD31 / Fold change (Aza/veh), C12orf56 (ProbeSet 11735607_a_at) / Fold change (ACY-1035/veh), C12orf56 (ProbeSet 11735607_a_at) / Fold change (Aza/veh), FGFR1OP (ProbeSet 11751329_s_at) / Fold change (ACY-1035/veh), FGFR1OP (ProbeSet 11751329_s_at) / Fold change (Aza/veh), VPS36 (ProbeSet 11739960_a_at) / Fold change (ACY-1035/veh), VPS36 (ProbeSet 11739960_a_at) / RFU SYPL1 (11715823_x_at) / Fold change /veh SYPL1 (11715823_x_at) / RFU IGFBP7 (11715501_s_at) / Fold change /veh IGFBP7 (11715501_s_at) / RFU REEP3 (11722064_at) / Fold change /veh REEP3 (11722064_at) / RFU IGLL1 (11728026_x_at) / Fold change /veh IGLL1 (11728026_x_at): dose or concentration left out as unconfirmed
Conditions: MV-4-11 cells, 48 hours

Nc1ncn([C@@H]2O[C@H](CO)[C@@H](O)[C@H]2O)c(=O)n1 [azacitidine]
Fold change /veh CDHR5 (11726645_a_at): 1.19
